Values after ≈ are worked out from the molar mass of the structure shown. Peptide text beside a SMILES is read from it.
Tests used:
Format in all cases: functional
Cryptococcus neoformans = experiment: Antifungal activity against Cryptococcus neoformans H99 measured after 24 to 48 hrs by CLSI method; settings: time 24-48 hrs
Candida albicans = experiment: Antifungal activity against Candida albicans SC5314 measured after 24 to 48 hrs by CLSI method; settings: time 24-48 hrs
Pichia kudriavzevii = experiment: Antifungal activity against Candida krusei IFM56881 measured after 24 to 48 hrs by CLSI method; settings: time 24-48 hrs
Candida parapsilosis = experiment: Antifungal activity against Candida parapsilosis ATCC 22019 measured after 24 to 48 hrs by CLSI method; settings: Lodderomyces parapsilosis, time 24-48 hrs

MIC (Cryptococcus neoformans) [µM] | MIC (Candida albicans) [µM] | MIC (Pichia kudriavzevii) [µM] | MIC (Candida parapsilosis) [µM] | Compound
2.31 (≈ 8.02 µg/mL) | > 73.8 | > 73.8 | 18.4 (≈ 64 µg/mL) | CSCC[C@H](NC(=O)[C@H](CCCNC(=N)N)NC(=O)[C@H](CCCCN)NC(=O)[C@H](CCCCN)NC(=O)[C@H](CCCCN)NC(=O)[C@H](Cc1c[nH]c2ccccc12)NC(=O)[C@H](CCCCN)NC(=O)[C@@H]1CCCN1C(=O)[C@H](CCCNC(=N)N)NC(=O)[C@@H](N)CCSC)C(=O)N[C@@H](CCCNC(=N)N)C(=O)N[C@@H](CCCNC(=N)N)C(=O)N[C@@H](CC(C)C)C(=O)N[C@@H](CCCCN)C(=O)N[C@@H](CCCNC(=N)N)C(=O)N[C@@H](CCCCN)C(=O)N[C@@H](CCCNC(=N)N)C(=O)N[C@@H](CCCCN)C(=O)N[C@@H](CCC(N)=O)C(=O)N[C@@H](CCCNC(=N)N)C(=O)N[C@@H](CCCNC(=N)N)C(=O)N[C@@H](C)C(=O)N[C@@H](CCCNC(=N)N)C(=O)N[C@@H](Cc1ccc(O)cc1)C(=O)N[C@@H](CCCCN)C(=O)O
1.79 (≈ 4.01 µg/mL) | 14.3 (≈ 32 µg/mL) | 28.6 (≈ 64 µg/mL) | 7.14 (≈ 16 µg/mL) | CC[C@H](C)[C@H](NC(=O)CNC(=O)[C@H](CCCNC(=N)N)NC(=O)[C@H](Cc1ccc(O)cc1)NC(=O)[C@H](CS)NC(=O)[C@@H](NC(=O)[C@H](CCCNC(=N)N)NC(=O)[C@H](Cc1ccccc1)NC(=O)[C@H](CS)NC(=O)[C@H](Cc1c[nH]c2ccccc12)NC(=O)[C@@H](N)CCCCN)C(C)C)C(=O)N[C@@H](CS)C(=O)N[C@@H](Cc1ccc(O)cc1)C(=O)N[C@@H](CCCNC(=N)N)C(=O)N[C@@H](CCCCN)C(=O)N[C@@H](CS)C(=O)N[C@@H](CCCNC(=N)N)C(=O)O (H-KWCFRVCYRGICYRKCR-OH)
3.53 (≈ 8.01 µg/mL) | 14.1 (≈ 32 µg/mL) | 28.2 (≈ 64 µg/mL) | 7.05 (≈ 16 µg/mL) | CC[C@H](C)[C@H](NC(=O)CNC(=O)[C@H](CCCNC(=N)N)NC(=O)[C@H](Cc1ccc(O)cc1)NC(=O)[C@H](CS)NC(=O)[C@@H](NC(=O)[C@H](CCCNC(=N)N)NC(=O)[C@H](Cc1ccccc1)NC(=O)[C@H](CS)NC(=O)[C@H](Cc1c[nH]c2ccccc12)NC(=O)[C@@H](N)CCCCN)C(C)C)C(=O)N[C@@H](CS)C(=O)N[C@@H](Cc1ccc(O)cc1)C(=O)N[C@@H](CCCNC(=N)N)C(=O)N[C@@H](CCCNC(=N)N)C(=O)N[C@@H](CS)C(=O)N[C@@H](CCCNC(=N)N)C(=O)O (H-KWCFRVCYRGICYRRCR-OH)
37.4 (≈ 128 µg/mL) | > 74.9 | > 74.9 | > 74.9 | CSCC[C@H](N)C(=O)N[C@@H](C)C(=O)N[C@H](C(=O)N[C@@H](CCCCN)C(=O)N[C@@H](CCCCN)C(=O)N[C@@H](CCCCN)C(=O)N[C@H](C(=O)N[C@H](C(=O)N[C@@H](CCCCN)C(=O)N[C@@H](CCCCN)C(=O)N[C@@H](C)C(=O)N[C@H](C(=O)N[C@@H](CCCCN)C(=O)N[C@@H](CCCCN)C(=O)N[C@H](C(=O)N[C@@H](C)C(=O)N[C@@H](CCCCN)C(=O)N[C@@H](CCCCN)C(=O)N[C@@H](C)C(=O)N1CCC[C@H]1C(=O)N[C@@H](CCCCN)C(=O)N[C@@H](CCCCN)C(=O)N[C@@H](C)C(=O)N[C@H](C(=O)N[C@@H](CCCCN)C(=O)N[C@@H](CCCCN)C(=O)N[C@H](C(=O)N[C@@H](C)C(=O)N[C@@H](CCCCN)C(=O)N[C@@H](CCCCN)C(=O)N[C@@H](CCCCN)C(=O)O)C(C)C)C(C)C)C(C)C)C(C)C)C(C)C)C(C)C)[C@@H](C)O (H-MATKKKVVKKAVKKVAKKAPKKAVKKVAKKK-OH)
> 106 | > 106 | > 106 | > 106 | CC[C@H](C)[C@H](NC(=O)CNC(=O)[C@H](C)NC(=O)[C@H](CC(C)C)NC(=O)[C@H](C)NC(=O)[C@H](Cc1c[nH]c2ccccc12)NC(=O)[C@H](CC(C)C)NC(=O)[C@H](CCCCN)NC(=O)[C@H](CCCCN)NC(=O)[C@H](Cc1ccc(O)cc1)NC(=O)[C@H](CCCCN)NC(=O)[C@@H](N)CCSC)C(=O)N[C@@H](C)C(=O)N[C@@H](CC(C)C)C(=O)N[C@@H](CO)C(=O)N[C@@H](CS)C(=O)N[C@@H](CC(N)=O)C(=O)N[C@@H](CC(C)C)C(=O)N[C@@H](CC(C)C)C(=O)N[C@@H](CC(C)C)C(=O)N[C@H](C(=O)N[C@@H](C)C(=O)O)[C@@H](C)O (H-MKYKKLWALAGIALSCNLLLTA-OH)
> 102 | > 102 | > 102 | > 102 | CC[C@H](C)[C@H](NC(=O)[C@@H](NC(=O)[C@H](Cc1ccccc1)NC(=O)[C@H](CS)NC(=O)[C@@H](NC(=O)[C@H](CC(C)C)NC(=O)[C@H](Cc1ccccc1)NC(=O)[C@@H](NC(=O)[C@H](Cc1ccccc1)NC(=O)CNC(=O)[C@H](Cc1ccccc1)NC(=O)[C@H](CCCCN)NC(=O)[C@H](CCCCN)NC(=O)[C@H](CCCCN)NC(=O)[C@H](CC(C)C)NC(=O)[C@@H](N)CCSC)C(C)C)C(C)C)C(C)C)C(=O)N[C@@H](Cc1ccccc1)C(=O)N[C@@H](Cc1cnc[nH]1)C(=O)N[C@@H](CO)C(=O)N[C@@H](CS)C(=O)N[C@@H](CCCCN)C(=O)O (H-MLKKKFGFVFLVCFVIFHSCK-OH)
7.12 (≈ 16 µg/mL) | 14.2 (≈ 32 µg/mL) | 56.9 (≈ 128 µg/mL) | 14.2 (≈ 32 µg/mL) | CC[C@H](C)[C@H](NC(=O)[C@H](CCCCN)NC(=O)[C@H](CO)NC(=O)[C@H](Cc1ccccc1)NC(=O)[C@@H](NC(=O)[C@@H](NC(=O)[C@H](CCCNC(=N)N)NC(=O)[C@H](Cc1ccccc1)NC(=O)[C@@H](NC(=O)[C@H](CCCCN)NC(=O)[C@H](CC(N)=O)NC(=O)[C@@H](N)CCSC)[C@@H](C)CC)C(C)C)[C@@H](C)CC)C(=O)N[C@@H](CC(C)C)C(=O)NCC(=O)N[C@@H](CCCNC(=N)N)C(=O)N[C@@H](CC(C)C)C(=O)N[C@H](C(=O)N[C@H](C(=O)N[C@H](C(=O)O)[C@@H](C)O)C(C)C)[C@@H](C)CC (H-MNKIFRVIFSKILGRLIVT-OH)
92.2 (≈ 256 µg/mL) | > 92.2 | > 92.2 | > 92.2 | CC[C@H](C)[C@H](NC(=O)[C@H](CCC(N)=O)NC(=O)[C@H](CCCCN)NC(=O)[C@H](CCCCN)NC(=O)[C@H](Cc1c[nH]c2ccccc12)NC(=O)[C@@H]1CCCN1C(=O)[C@@H](NC(=O)[C@H](CC(C)C)NC(=O)[C@H](CCCNC(=N)N)NC(=O)[C@H](CC(C)C)NC(=O)[C@@H](NC(=O)[C@H](CC(C)C)NC(=O)[C@@H]1CCCN1C(=O)[C@H](CCCCN)NC(=O)[C@H](Cc1cnc[nH]1)NC(=O)[C@H](CS)NC(=O)[C@H](CCCCN)NC(=O)[C@H](CCCNC(=N)N)NC(=O)[C@H](CC(C)C)NC(=O)[C@H](CCCNC(=N)N)NC(=O)[C@@H](N)CCSC)[C@@H](C)O)C(C)C)C(=O)N[C@@H](CCSC)C(=O)O (H-MRLRKCHKPLTLRLVPWKKQIM-OH)
5.47 (≈ 16 µg/mL) | 43.8 (≈ 128 µg/mL) | 21.9 (≈ 64 µg/mL) | 43.8 (≈ 128 µg/mL) | CC[C@H](C)[C@H](NC(=O)[C@H](CCCCN)NC(=O)[C@@H](NC(=O)[C@@H](N)CCSC)[C@@H](C)O)C(=O)N[C@@H](CC(C)C)C(=O)N[C@@H](CC(C)C)C(=O)N[C@H](C(=O)N[C@H](C(=O)N[C@@H](CCCCN)C(=O)N[C@@H](CCCNC(=N)N)C(=O)N[C@@H](CC(C)C)C(=O)N[C@@H](CCCNC(=N)N)C(=O)N[C@H](C(=O)N[C@H](C(=O)N[C@@H](Cc1ccc(O)cc1)C(=O)N[C@H](C(=O)N[C@@H](CCCCN)C(=O)N[C@@H](CCCNC(=N)N)C(=O)N[C@@H](CS)C(=O)N[C@@H](CC(C)C)C(=O)N[C@@H](CS)C(=O)N[C@@H](Cc1ccccc1)C(=O)N[C@@H](CCCNC(=N)N)C(=O)N[C@@H](C)C(=O)O)[C@@H](C)O)C(C)C)[C@@H](C)O)C(C)C)[C@@H](C)CC (H-MTKILLIVKRLRTVYTKRCLCFRA-OH)
